Test results taken from US20090047246A1, “NOVEL INHIBITORS OF HEPATITIS C VIRUS REPLICATION” (InterMune, Inc., priority 2007, published 2009).

Biological target: T1, HCV NS3 helicase (Hepatitis C virus genotype 1b, UniProt P26663)
T1 construct: full-length NS3 (1-631), purified at Array BioPharma
Test: HCV Helicase Prompt FRET Assay (Example A)
Type: biochemical
Conditions: HCV NS3 helicase; tables do not say whether Example A or Example B assay; read-out: IC50 Activity
Method in brief: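 Full-length NS3 (1-631), 5 or 6 nM, preincubated 5 min with compound, then unwinds 50 nM FAM/BHQ-1 duplex substrate with 250 nM capture strand and 300 μM ATP in 25 mM MOPS pH 7.0, 1.5 mM MgCl2, 0.005% Triton X-100, 2% DMSO. Fluorescence (485/535 nm) followed ~30 min at room temperature; IC50 from initial rates by 4- or 5-parameter fit.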

T1 sequence (P26663 1027-1657): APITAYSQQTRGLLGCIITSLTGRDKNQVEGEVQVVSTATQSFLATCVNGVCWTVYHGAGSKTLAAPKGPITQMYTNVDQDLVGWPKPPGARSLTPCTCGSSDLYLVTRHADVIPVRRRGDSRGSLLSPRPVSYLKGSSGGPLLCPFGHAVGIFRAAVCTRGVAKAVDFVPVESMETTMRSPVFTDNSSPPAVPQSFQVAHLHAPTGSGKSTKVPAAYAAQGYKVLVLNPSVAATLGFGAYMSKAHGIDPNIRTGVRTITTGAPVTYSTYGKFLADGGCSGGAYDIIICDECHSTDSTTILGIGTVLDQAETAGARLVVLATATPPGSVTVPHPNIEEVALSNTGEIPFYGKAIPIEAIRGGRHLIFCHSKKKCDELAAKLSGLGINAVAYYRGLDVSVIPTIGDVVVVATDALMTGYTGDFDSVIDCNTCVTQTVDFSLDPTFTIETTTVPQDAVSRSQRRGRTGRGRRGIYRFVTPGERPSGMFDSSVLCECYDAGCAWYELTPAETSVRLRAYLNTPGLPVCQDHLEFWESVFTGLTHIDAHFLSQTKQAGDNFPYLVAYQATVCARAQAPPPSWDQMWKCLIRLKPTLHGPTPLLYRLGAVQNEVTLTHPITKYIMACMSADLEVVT

| Compound | IC50 [µM] |
| --- | --- |
| CSc1ccccc1-c1ccc(C(=O)c2[nH]c3ccccc3c2CC(=O)O)cc1 [Example 271] | 10 to 50 |
| O=C(O)Cc1c(C(=O)c2ccc(-c3ccc(Cl)cc3Cl)cc2)[nH]c2ccccc12 [Example 272] | < 10 |
| O=C(O)Cc1c(C(=O)c2ccc(-c3cccc(Cl)c3Cl)cc2)[nH]c2ccccc12 [Example 274] | < 10 |
| O=C(O)Cc1c(C(=O)c2ccc(-c3ccccc3Cl)cc2)[nH]c2ccc(Br)cc12 [Example 275] | < 10 |
| O=C(O)Cc1c(Cc2ccc(-c3ccccc3)cc2)n(Cc2ccccc2)c2ccccc12 [Example 277] | 10 to 50 |
| O=C(O)Cc1c(Cc2ccc(-c3ccccc3)cc2)n(CC2CC2)c2ccccc12 [Example 278] | < 10 |
| O=C(O)Cc1c(Cc2ccc(-c3ccc(Cl)c(Cl)c3)cc2)[nH]c2ccccc12 [Example 280] | < 10 |
| Cc1cc(-c2ccc(Cc3[nH]c4ccccc4c3CC(=O)O)cc2)ccc1Cl [Example 281] | < 10 |
| Cc1ccc(-c2ccc(Cc3[nH]c4ccccc4c3CC(=O)O)cc2)cc1C [Example 282] | < 10 |
| Cc1ccccc1-c1ccc(Cc2[nH]c3ccccc3c2CC(=O)O)cc1 [Example 283] | 10 to 50 |
| O=C(O)Cc1c(Cc2ccc(-c3ccccc3Br)cc2)[nH]c2ccccc12 [Example 287] | < 10 |
| CSc1ccccc1-c1ccc(Cc2[nH]c3ccccc3c2CC(=O)O)cc1 [Example 288] | < 10 |
| O=C(O)Cc1c(Cc2ccc(-c3ccc(Cl)cc3Cl)cc2)[nH]c2ccccc12 [Example 289] | < 10 |
| CC(=O)Nc1cccc(-c2ccc(Cc3[nH]c4ccccc4c3CC(=O)O)cc2)c1 [Example 293] | 10 to 50 |
| CSc1cccc(-c2cccc(Cc3[nH]c4ccccc4c3CC(=O)O)c2)c1 [Example 297] | < 10 |
| COc1ccc(-c2cccc(Cc3[nH]c4ccccc4c3CC(=O)O)c2)cc1 [Example 299] | < 10 |
| O=C(O)Cc1c(Cc2cccc(-c3cccc(CO)c3)c2)[nH]c2ccccc12 [Example 300] | < 10 |

| Compound | IC50 [µM] |
| --- | --- |
| CC(C)c1cccc(-c2cccc(Cc3[nH]c4ccccc4c3CC(=O)O)c2)c1 [Example 302] | < 10 |
| O=C(O)Cc1c(Cc2cccc(-c3cccc(Cl)c3Cl)c2)oc2ccccc12 [Example 307] | < 10 |
| O=C(O)Cc1c(Cc2cccc(-c3ccc(Cl)cc3Cl)c2)oc2ccccc12 [Example 308] | < 10 |
| O=C(O)Cc1c(Cc2cccc(-c3cc(Cl)cc(Cl)c3)c2)oc2ccccc12 [Example 310] | < 10 |
| Cc1cc([N+](=O)[O-])ccc1-n1cc(CP(=O)(O)O)c2cc(Br)ccc21 [Example 313] | 10 to 50 |
| O=[N+]([O-])c1ccc(-n2cc(CP(=O)(O)O)c3cc(Br)ccc32)nc1 [Example 317] | < 10 |
| O=C(O)Cc1c[nH]c2ncccc12 [Example 318] | > 50 |
| Cc1cc([N+](=O)[O-])ccc1-n1cc(I)c2cc(Br)cnc21 [Example 320] | > 50 |
| C#Cc1cn(-c2ccc([N+](=O)[O-])cc2C)c2ncc(Br)cc12 [Example 321] | > 50 |
| Cc1cc([N+](=O)[O-])ccc1-n1cc(/C=C/C(=O)O)c2cc(/C=C/C(=O)O)cnc21 [Example 323] | > 50 |
| Cc1cc([N+](=O)[O-])ccc1-n1cc(CC(=O)O)c2cc(Br)cnc21 [Example 324] | > 50 |
| Cc1cc([N+](=O)[O-])ccc1-n1cc(C=O)c2cc(OCc3ccccc3)ncc21 [Example 327] | > 50 |
| COC(=O)/C=C/c1cn(-c2ccc([N+](=O)[O-])cc2C)c2ncc(OCc3ccccc3)cc12 [Example 328] | > 50 |
| COC(=O)C=Cc1cn(-c2ccc([N+](=O)[O-])cc2C)c2cnc(OCc3ccccc3)cc12 [Example 329] | > 50 |
| Cc1cc([N+](=O)[O-])ccc1-n1cc(/C=C/C(=O)O)c2cc(Br)cnc21 [Example 330] | > 50 |
| Cc1cc([N+](=O)[O-])ccc1-n1cc(C(=O)C(=O)O)c2cc(Br)cnc21 [Example 332] | 10 to 50 |
| COC(=O)/C=C/c1cnc2c(c1)c(CC(=O)O)cn2-c1ccc(NCCC(=O)OC)cc1C [Example 334] | 10 to 50 |

Further lines, results first:

| IC50 [µM] | Compound |
| --- | --- |
| 10 to 50 | O=C(O)Cc1c(C(=O)c2ccc(-c3c(Cl)cccc3Cl)cc2)[nH]c2ccccc12 [Example 273] |
| 10 to 50 | Cn1c(Cc2ccc(-c3ccccc3)cc2)c(CC(=O)O)c2ccccc21 [Example 276] |
| < 10 | O=C(O)Cc1c(Cc2ccc(-c3ccccc3Cl)cc2)[nH]c2ccccc12 [Example 279] |
| 10 to 50 | COc1ccccc1-c1ccc(Cc2[nH]c3ccccc3c2CC(=O)O)cc1 [Example 284] |
| < 10 | O=C(O)Cc1c(Cc2ccc(-c3ccccc3C(F)(F)F)cc2)[nH]c2ccccc12 [Example 285] |
| 10 to 50 | O=C(O)Cc1c(Cc2ccc(-c3ccccc3F)cc2)[nH]c2ccccc12 [Example 286] |
| < 10 | O=C(O)Cc1c(Cc2ccc(-c3cccc(Cl)c3Cl)cc2)[nH]c2ccccc12 [Example 290] |
| < 10 | Cc1ccc(-c2ccc(Cc3[nH]c4ccccc4c3CC(=O)O)cc2)cc1Cl [Example 291] |
| 10 to 50 | CC(=O)Nc1ccc(-c2ccc(Cc3[nH]c4ccccc4c3CC(=O)O)cc2)cc1 [Example 292] |
| < 10 | O=C(O)Cc1c(Cc2ccc(-c3ccccc3Cl)cc2)[nH]c2ccc(Br)cc12 [Example 294] |
| < 10 | O=C(O)Cc1c(Cc2ccc(-c3ccccc3)cc2)[nH]c2ccccc12 [Example 295] |
| < 10 | O=C(O)Cc1c(Cc2cccc(-c3cccc(C(F)(F)F)c3)c2)[nH]c2ccccc12 [Example 296] |
| < 10 | COc1cccc(-c2cccc(Cc3[nH]c4ccccc4c3CC(=O)O)c2)c1 [Example 298] |
| 10 to 50 | NC(=O)c1cccc(-c2cccc(Cc3[nH]c4ccccc4c3CC(=O)O)c2)c1 [Example 301] |
| < 10 | O=C(O)Cc1c(Cc2cccc(-c3cccc(Cl)c3Cl)c2)[nH]c2ccccc12 [Example 303] |
| 10 to 50 | O=C(O)Cc1c(Cc2ccc(-c3ccccc3)cc2)oc2ccccc12 [Example 305] |
| < 10 | O=C(O)Cc1c(Cc2ccc(-c3ccccc3)cc2)sc2ccccc12 [Example 306] |
| < 10 | O=C(O)Cc1c(Cc2cccc(-c3ccc(Cl)c(Cl)c3)c2)oc2ccccc12 [Example 309] |
| < 10 | CC(C)c1cccc(-c2cccc(Cc3oc4ccccc4c3CC(=O)O)c2)c1 [Example 311] |
| 10 to 50 | O=C(O)Cc1c(C(=O)c2ccc(-c3ccccc3)cc2)[nH]c2ccc(Br)cc12 [Example 312] |
| 10 to 50 | CS(=O)(=O)c1ccc(-n2cc(CP(=O)(O)O)c3cc(Br)ccc32)cc1 [Example 314] |
| 10 to 50 | O=P(O)(O)Cc1cn(-c2ccc(S(=O)(=O)CCO)cc2)c2ccc(Br)cc12 [Example 315] |
| 10 to 50 | N#Cc1ccnc(-n2cc(CP(=O)(O)O)c3cc(Br)ccc32)c1 [Example 316] |
| > 50 | Cc1cc([N+](=O)[O-])ccc1-n1cc(CC(=O)O)c2cccnc21 [Example 319] |
| 10 to 50 | COC(=O)/C=C/c1cnc2c(c1)c(/C=C/C(=O)OC)cn2-c1ccc([N+](=O)[O-])cc1C [Example 322] |
| > 50 | O=Cc1c[nH]c2cnc(OCc3ccccc3)cc12 [Example 326] |
| > 50 | Cc1cc([N+](=O)[O-])ccc1-n1cc(C=CC(=O)O)c2cc(OCc3ccccc3)ncc21 [Example 333] |
